{"source": "patent US5364615A", "about": "(priority 1992, dated 1994)", "key": {"Pneumocystis carinii [1]": {"test_system": "Pneumocystis carinii", "settings": "cited from earlier work"}, "Pneumocystis carinii [2]": {"test_system": "Pneumocystis carinii", "settings": "in vivo; cited from earlier work"}, "[3]": {"assay": "Adverse reactions and toxicity during PCP therapy (Example 3)", "settings": "inhaled pretreatment; 9 patients"}, "[4]": {"settings": "human, in vivo; cited from earlier work"}, "Pneumocystis carinii [5]": {"test_system": "Pneumocystis carinii", "assay": "Randomized clinical trial of PCP prophylaxis (Example 8)", "format": "in vivo, human"}}, "data": [{"smiles": "NCCC[C@](N)(C(=O)O)C(F)F", "note": "[DFMO, α-difluoromethylornithine]", "values": [{"measurement": "clinical response", "setting": "Pneumocystis carinii [1]; recent clinical studies", "value": "some clinical response"}, {"measurement": "efficacy in rat PCP model", "setting": "Pneumocystis carinii [2]", "value": "hot efficacious"}]}, {"smiles": "Nc1ccc(S(=O)(=O)c2ccc(N)cc2)cc1", "note": "[Dapsone, diaminodiphenylsulfone]", "values": [{"measurement": "failure rate for PCP", "setting": "Pneumocystis carinii [1]; dapsone alone", "value": "about 39%"}, {"measurement": "efficacy in rat PCP model", "setting": "Pneumocystis carinii [2]", "value": "effective"}]}, {"smiles": "CC(C)NCC(O)c1cc(O)cc(O)c1", "note": "(stereo not drawn) [metaproterenol]", "values": [{"measurement": "control of aerosol-related cough", "setting": "[3]", "value": "in 9 patients cough was mild and controlled"}]}, {"smiles": "COc1cc(NCc2ccc3nc(N)nc(N)c3c2C)cc(OC)c1OC", "note": "[trimetrexate]", "values": [{"measurement": "relapse rate within one month", "setting": "Pneumocystis carinii [1]; human, in vivo", "value": "relapse rates within one month appear to be high"}, {"measurement": "adverse reactions", "setting": "[4]", "value": "Adverse reactions have been reported"}]}, {"smiles": "Cc1cn([C@H]2C[C@H](N=[N+]=[N-])[C@@H](CO)O2)c(=O)[nH]c1=O", "note": "[zidovudine]", "values": [{"measurement": "reduction of PCP risk", "setting": "Pneumocystis carinii [5]; AZT use, Cox models, with aerosolized pentamidine", "value": "two-fold"}, {"measurement": "mortality", "setting": "Pneumocystis carinii [5]; participants who had taken zidovudine, on aerosolized pentamidine, never taken: 67%", "value": 28, "unit": "%"}]}]}
